Assay results: patent US9180115B2, “Cyclohexylamines” (Asana Biosciences, LLC, priority 2011, dated 2015)

Tested on: sodium channel response in hTRPV1-N1E115 cells
Test: FLIPR membrane potential assay of sodium channel response in hTRPV1-N1E115 cells with or without heat (47° C.) activation
Type: cell-based
Conditions: for hTRPV1-N1E Nav 0.1 mM (% inhibition) 25° C. / hTRPV1-N1E Nav 1 mM (% inhibition) 25° C.: 25° C. (no heat activation); for hTRPV1-N1E Nav 0.1 mM (% inhibition) 47° C. / hTRPV1-N1E Nav 1 mM (% inhibition) 47° C.: 47° C. (heat activated); for IC50: 47° C., read-out: hTRPV1-N1E IC50 (μM) 47° C.
Text: In one embodiment, a modified FLIPR® (Fluorometric Imaging Plate Reader) based assay system was developed which is capable of discriminating between non-specific versus hTRPV1-mediated entry of test compounds. Advantageously, the assay system utilizes heat activated opening of hTRPV1 channels followed by an assessment of internal sodium channel block. The assay allows a permanently charged compound to selectively enter through opened hTRPV1 channels and that compound's potency in inhibiting sodium channels from the cytoplasm side of the same cell can be assessed and quantified.
The test compounds are diluted in the Assay Buffer and added to each well of a specific 384-well ‘compound plate’, which serves as a source plate for compound addition using the FLIPR® platform. The concentration of compounds in the compound-plate was adjusted to achieve the desired final concentration when added to the cells in the ‘cell-plate’. After completion of the dye incubation period, the dye loaded cell-plates and the compound source plates are inserted into the FLIPR® Tetra device with a 384 FLIPR® tip box (Molecular Devices, Inc.) according to manufacturer's instructions. The compounds are robotically added to the dye loaded cell-plates using software integral to the FLIPR® Tetra instrument.
Immediately following compound addition, hTRPV1 is activated, in one of the duplicate cell plates, by heating. Specifically, entire multi-well plate containing the compound-cells mixture is incubated at 47° C. for 10 minutes, after which they are returned to room temperature (about 25° C.) for a further 30 minutes. Heat activation of hTRPV1 was omitted from the replicate cell plate which was simply maintained at room temperature for the entire 40 minutes.
A membrane potential response is elicited in the dye- and compound-loaded cells by the addition of veratridine which is a known sodium channel ‘agonist’. As illustrated in an example herein, an agonist plate containing veratridine (Sigma) is prepared in advance and is inserted into suitable devices such as, e.g., the FLIPR® TETRA device for a “2nd addition” as instructed by the manufacturer. The concentration of veratridine in the ‘agonist plate’ was adjusted to achieve a final concentration of 100 μM when added to the cells in the cell-plate. Final concentrations of veratridine greater or lesser than 100 μM may also be used but the signal measured by the FLIPR® TETRA device or another suitable device may vary accordingly.
The exposure of the cells in the cell-plate to veratridine induces sodium channels in the cells to open and the resulting ion flux produces a membrane potential depolarization that is detected as a fluorescence signal by the FLIPR® Tetra Device. The activity of test compounds is determined by their ability to attenuate the veratridine-induced fluorescence signal, the most promising compounds are those that show an enhanced activity in the heat-activated cell plate over the non-heat-activated cell plate. This differential activity reflects enhanced compound uptake via the heat activated and open hTRPV1 channels and rests on the fact that sodium channel block requires test compounds to act from the cytoplasmic side of the cell membrane.
In vitro assays were developed for assessing the inhibition of sodium channel response with compounds following stimulation by heat (47° C.) in cells expressing hTRPV1.
(v) Membrane potential Assay to Assess Sodium Channel Function in hTRPV1-Expressing Cells • Cells were plated at 5000 per 50 μL [DMEM+10% FBS+300 μg/mL H\hygromycin] per well, in a 384 clear bottom poly-D-lysine coated plate and incubated at 37° C. and 5% CO2 for 48 hours. On the day of the assay, media were discarded gently and 30 μL of the dye [FMP blue dye was prepared in assay buffer] per well was added and dye-loading was allowed to proceed for 20 min at room temperature. […]

SMILES	hTRPV1-N1E Nav 0.1 mM (% inhibition) 25° C.	hTRPV1-N1E Nav 0.1 mM (% inhibition) 47° C.	hTRPV1-N1E Nav 1 mM (% inhibition) 25° C.	hTRPV1-N1E Nav 1 mM (% inhibition) 47° C.	IC50
Cc1cccc(C)c1C(=O)OCC[N+](C)(C)C1CCCCC1.[I-] [Example 40, N-[2-((2,6-Dimethylbenzoyl)oxy)ethyl]-N,N-dimethylcyclo-hexanaminium iodide]	10 (N = 4) %	43 (N = 4) %	12 (N = 4) %	80 (N = 4) %	–
COc1cccc(OC)c1C(=O)OC(C)C[N+](C)(C)C1CCCCC1.[I-] (centres unmarked) [Example 7, N-[2-((2,6-Dimethoxybenzoyl)oxy)propyl]-N,N-dimethyl-cyclohexanaminium iodide]	1 (N = 4) %	28 (N = 4) %	0 (N = 4) %	70 (N = 4) %	–
CC(C[N+](C)(C)C1CCCCC1)OC(=O)c1ccc(Cl)cc1.[I-] (centres unmarked) [Example 13, N-[2-((4-Chlorobenzoyl)oxy)propyl]-N,N-dimethyl-cyclohexanaminium iodide]	0 (N = 4) %	44 (N = 4) %	51 (N = 4) %	89 (N = 4) %	10 to 100 µM
CC(C[N+](C)(C)C1CCCCC1)OC(=O)c1cccc(Cl)c1Cl.[I-] (centres unmarked) [Example 29, N-[2-((2,3-Dichlorobenzoyl)oxy)propyl]-N,N-dimethyl-cyclohexanaminium iodide]	36 (N = 4) %	52 (N = 4) %	50 (N = 4) %	61 (N = 4) %	10 to 100 µM
CC(C[N+](C)(C)C1CCCCC1)OC(=O)c1cccs1.[I-] (centres unmarked) [Example 32, N,N-Dimethyl-N-[2-((thiophene-2-carbonyl)oxy)propyl] cyclohexanaminium iodide]	4 (N = 4) %	48 (N = 4) %	1 (N = 4) %	54 (N = 4) %	–
Cc1ccc(C(=O)OC(C)C[N+](C)(C)C2CCCCC2)cc1.[I-] (centres unmarked) [Example 42, N,N-Dimethyl-N-[2-((4-methylbenzoyl)oxy)propyl] cyclohexanaminium iodide]	8 (N = 4) %	45 (N = 4) %	16 (N = 4) %	90 (N = 4) %	10 to 100 µM
CC(C[N+](C)(C)C1CCCCC1)OC(=O)c1cccc(F)c1.[I-] (centres unmarked) [Example 14, N-[2-((3-Fluorobenzoyl)oxy)propyl]-N,N-dimethyl-cyclohexanaminium iodide]	0 (N = 4) %	31 (N = 4) %	10 (N = 4) %	66 (N = 4) %	–
Cc1cccc(C)c1C(=O)OC(C)C[N+](C)(C)C1CCC(C)CC1.[I-] (centres unmarked) [Example 36, N-[2-((2,6-Dimethylbenzoyl)oxy)propyl]-N,N,4-trimethylcyclo-hexanaminium iodide]	50 (N = 4) %	83 (N = 4) %	84 (N = 4) %	95 (N = 4) %	10 to 100 µM
CCc1ccc(C(=O)OC(C)C[N+](C)(C)C2CCCCC2)cc1.[I-] (centres unmarked) [Example 20, N-[2-((4-Ethylbenzoyl)oxy)propyl]-N,N-dimethyl-cyclohexanaminium iodide]	14 (N = 4) %	77 (N = 4) %	46 (N = 4) %	95 (N = 4) %	10 to 100 µM
Cc1ccc(C(=O)OC(C)C[N+](C)(C)C2CCCCC2)c(C)c1.[I-] (centres unmarked) [Example 45, N-[2-((2,4-Dimethylbenzoyl)oxy)propyl]-N,N-dimethylcyclo-hexanaminium iodide]	4 (N = 4) %	72 (N = 4) %	46 (N = 4) %	83 (N = 4) %	10 to 100 µM
CC(C[N+](C)(C)C1CCCCC1)OC(=O)c1ccccc1[N+](=O)[O-].[I-] (centres unmarked) [Example 18, N,N-Dimethyl-N-[2-((2-nitrobenzoyl)oxy)propyl] cyclohexanaminium iodide]	3 (N = 4) %	41 (N = 4) %	28 (N = 4) %	66 (N = 4) %	–
CC(C[N+](C)(C)C1CCCCC1)OC(=O)c1ccccc1Cl.[I-] (centres unmarked) [Example 9, N-[2-((2-Chlorobenzoyl)oxy)propyl]-N,N-dimethyl-cyclohexanaminium iodide]	16 (N = 4) %	67 (N = 4) %	–	–	–
CC(C[N+](C)(C)C1CCCCC1)OC(=O)c1ccc(Cl)cc1Cl.[I-] (centres unmarked) [Example 10, N-[2-((2,4-Dichlorobenzoyl)oxy)propyl]-N,N-dimethyl-cyclohexanaminium iodide]	10 (N = 4) %	59 (N = 4) %	61 (N = 4) %	95 (N = 4) %	100 to 1000 µM
CC(C[N+](C)(C)C1CCCCC1)OC(=O)c1cccn1C.[I-] (centres unmarked) [Example 34, N,N-Dimethyl-N-[2-((1-methyl-1H-pyrrole-2-carbonyl)oxy)propyl] cyclohexanaminium iodide]	35 (N = 4) %	36 (N = 4) %	35 (N = 4) %	55 (N = 4) %	–
Cc1cc(C)c(C(=O)O[C@@H](C)C[N+](C)(C)C2CCCCC2)c(C)c1.[I-] [Example 22, (S)-N,N-Dimethyl-N-[2-((2,4,6-trimethylbenzoyl)oxy)propyl] cyclohexanaminium iodide]	33 (N = 4) %	–	91 (N = 4) %	–	10 to 100 µM
Cc1ccccc1C(=O)OC(C)C[N+](C)(C)C1CCCCC1.[I-] (centres unmarked) [Example 11, N,N-Dimethyl-N-[2-((2-methylbenzoyl)oxy)propyl] cyclohexanaminium iodide]	16 (N = 4) %	40 (N = 4) %	–	–	100 to 1000 µM
Cc1cc(C)c(C(=O)OCC[N+](C)(C)C2CCCCC2)c(C)c1.[I-] [Example 41, N-[2-((2,4,6-Trimethylbenzoyl)oxy)ethyl]-N,N-dimethylcyclo-hexanaminium iodide]	13 (N = 4) %	66 (N = 4) %	22 (N = 4) %	89 (N = 4) %	10 to 100 µM
CC(C[N+](C)(C)C1CCCCC1)OC(=O)c1c(Cl)cccc1Cl.[I-] (centres unmarked) [Example 27, N-[2-((2,6-Dichlorobenzoyl)oxy)propyl]-N,N-dimethylcyclo-hexanaminium iodide]	23 (N = 4) %	73 (N = 4) %	74 (N = 4) %	85 (N = 4) %	100 to 1000 µM
